US12285012B2, “Compositions comprising pyridine carboxylate herbicides with acetolactate synthase (ALS) inhibitor herbicides” (Corteva Agriscience LLC, priority 2018, dated 2025)

Tests used:
Assay in all cases: Greenhouse postemergence herbicidal effect
Type in all cases: in vivo
[1] = tested on: large crabgrass (DIGSA, Digitaria sanguinalis); settings: DIGSA; Bensulfuron 16 g/ha
From the text: (§1) Seeds of the desired test plant species were planted in a 90:10% v/v (volume/volume) mixture of PRO-MIX® BX (Premier Tech Horticulture, Quakertown, PA, USA) and PROFILE® GREENS GRADE™ (Profile Products LLC, Buffalo Grove, IL, USA) planting mixture, which typically has a pH of 5.2 to 6.2 and an organic matter content of at least 50 percent, in plastic pots with a surface area of 103.2 square centimeters (cm^2). In some aspects, to ensure good germination and healthy plants, a fungicide treatment and/or other chemical or physical treatment was applied. The plants were grown for 7-36 days (d) in a greenhouse with an approximate 14-hour (h) photo-period which was maintained at about 23° C. during the day and 22° C. during the night. Nutrients and water were added on a regular basis and supplemental lighting was provided with overhead metal halide 1000-Watt lamps as necessary. The plants were employed for testing when they reached the second or third true leaf stage.
(§2) Emulsifiable concentrates of each of each pyridine carboxylate herbicide (Compound A or Compound B) were prepared at 100 grams acid equivalent per liter (g ae/L). The emulsifiable concentrates also included a safener, cloquintocet-mexyl, at 120 grams active ingredient per liter (g ai/L), unless otherwise noted below. An aliquot of each emulsifiable concentrate was placed in a 25 mL glass vial and diluted with an aqueous mixture of 1.25% (v/v) ACTIROB® B esterified rapeseed oil (Bayer Crop Science, Research Triangle Park, NC, USA) or MSO® Concentrate with LECI-TECH® methylated soybean oil (Loveland Products, Loveland, CO, USA) to obtain concentrated stock solutions at the highest application rate for each herbicide, based upon a 12 milliliter (mL) application volume at a rate of 187 liters per hectare (L/ha). The concentrated stock solutions were further diluted with an aqueous mixture of 1.25% v/v ACTIROB® B or MSO® Concentrate with LECI-TECH® to obtain stock solutions at reduced application rates for each herbicide. Spray solutions of the herbicide combinations (Compound A or Compound B plus ALS herbicide) were prepared by adding weighed amounts or aliquots of the ALS herbicides to the stock solutions of Compound A or Compound B to form 12-mL spray solutions in two- or three-way combinations.
(§3) The spray solutions were applied to the plant material with an overhead Mandel track sprayer equipped with 8002E nozzles calibrated to deliver 187 L/ha over an application area of 0.503 square meters (m^2) at a spray height of 18 inches (43 centimeters (cm)) above the average plant canopy. Control plants were sprayed in the same manner with the solvent blank. All pyridine carboxylate herbicide (component a) application rates are given as “g ae/ha” and all ALS inhibitor (component b) application rates are given as “g ai/ha.”
(§4) The treated plants and control plants were placed in a greenhouse as described above and watered by sub-irrigation to prevent wash-off of the test compounds. After 20-22 d, the condition of the test plants as compared with that of the control plants was determined visually and scored on a scale of 0 to 100 percent where 0 corresponds to no injury and 100 corresponds to complete kill.

[2] = tested on: broad-leaf dock (RUMOB, Rumex obtusifolius)
From the text: as §1, §2, §3, §4

[3] = tested on: common lambsquarters (CHEAL, Chenopodium album L.)
Protocol: as §1, with “In some aspects, to ensure good germination and healthy plants, a fungicide treatment and/or other chemical or physical treatment was applied.” left out
as §2, §3, §4

[4] = tested on: kochia (KCHSC, Kochia scoparia)
Protocol: as §1, with “In some aspects, to ensure good germination and healthy plants, a fungicide treatment and/or other chemical or physical treatment was applied.” left out
as §2, §3, §4

[5] = tested on: wild chamomile (MATCH, Matricaria chamomilla)
Protocol: (§5) The plants were grown for 7-36 days (d) in a greenhouse with an approximate 14-hour (h) photo-period which was maintained at about 23° C. during the day and 22° C. during the night. Nutrients and water were added on a regular basis and supplemental lighting was provided with overhead metal halide 1000-Watt lamps as necessary. The plants were employed for testing when they reached the second or third true leaf stage.
(§6) The emulsifiable concentrates also included a safener, cloquintocet-mexyl, at 120 grams active ingredient per liter (g ai/L), unless otherwise noted below.
(§7) Control plants were sprayed in the same manner with the solvent blank. All pyridine carboxylate herbicide (component a) application rates are given as “g ae/ha” and all ALS inhibitor (component b) application rates are given as “g ai/ha.”
as §4

[6] = tested on: Russian thistle (SASKR, Salsola kali); settings: 16 g/ha
Protocol: as §5, §6, §7, §4

[7] = tested on: Canadian thistle (CIRAR, Cirsium arvense)
Protocol: as §5, §6, §7, §4

[8] = tested on: pigweed (AMARE, Amaranthus retroflexus)
Protocol: as §5, §6, §7, §4

[9] = tested on: wild buckwheat (POLCO, Polygonum convolvulus)
Protocol: as §5, §6, §7, §4

[10] = tested on: chickweed (STEME, Stellaria media)
Protocol: as §5, §6, §7, §4

[11] = tested on: wild pansy (VIOTR, Viola tricolor)
Protocol: as §5, §6, §7, §4

[12] = tested on: ivyleaf morningglory (IPOHE, Ipomoea hederacea); settings: 8.75 g/ha
From the text: as §1, §2, §3, §4

[13] = tested on: common sunflower (HELAN, Helianthus annuus); settings: 8.75 g/ha
From the text: as §1, §2, §3, §4

[14] = tested on: velvetleaf (ABUTH, Abutilon theophrasti); settings: 8.75 g/ha
From the text: as §1, §2, §3, §4

[15] = tested on: soybean (GLXMA, Glycine max); settings: 8.75 g/ha
From the text: as §1, §2, §3, §4

[16] = tested on: wild mustard (SINAR, Sinapis arvensis); settings: Sulfosulfuron 140 g/ha
Protocol: as §5, §6, §7, §4

[17] = tested on: winter rape (BRSNW, Brassica napus); settings: Sulfosulfuron 140 g/ha
Protocol: as §5, §6, §7, §4

COc1cc(OC)nc(NC(=O)NS(=O)(=O)Cc2ccccc2C(=O)O)n1 [Bensulfuron, bensulfuron]
Obs % visual injury [1]: 0%
Obs % visual injury ([2]; RUMOB, Bensulfuron 16 g/ha): 60%
% visual injury, Obs ([3]; 16 g/ha): 10%
Obs % visual injury ([3]; CHEAL, Bensulfuron 16 g/ha): 10%
% visual injury, Obs ([4]; 16 g/ha): 5%
Obs % visual injury ([4]; KCHSC, Bensulfuron 16 g/ha): 20%
% visual injury, Obs ([5]; 16 g/ha): 38%
% visual injury, Obs [6]: 0%
Obs % visual injury ([7]; CIRAR, Bensulfuron 16 g/ha): 20%
Obs % visual injury ([8]; AMARE, Bensulfuron 16 g/ha): 20%
Obs % visual injury ([9]; POLCO, Bensulfuron 16 g/ha): 80%
Obs % visual injury ([10]; STEME, Bensulfuron 16 g/ha): 8%
Obs % visual injury ([11]; VIOTR, Bensulfuron 16 g/ha): 8%

CCS(=O)(=O)c1nc2ccccn2c1S(=O)(=O)NC(=O)Nc1nc(OC)cc(OC)n1 [Sulfosulfuron, sulfosulfuron]
% visual injury, Obs [12]: 78%
% visual injury, Obs [13]: 100%
% visual injury, Obs [14]: 30%
% visual injury, Obs [15]: 85%
% visual injury, Obs ([2]; 8.75 g/ha): 0%
% visual injury, Obs ([3]; 8.75 g/ha): 0%
% visual injury ([3]; Sulfosulfuron 140 g/ha): 43%
pest or weed control at 8.75 g/ha ([4]; Bassia scoparia, post-emergence, 8.75 g/ha, read-out: % visual injury, Obs): 0%
% visual injury ([4]; Sulfosulfuron 140 g/ha): 8%
% visual injury ([5]; Sulfosulfuron 140 g/ha): 73%
pest or weed control at 8.75 g/ha ([7]; Cirsium arvense, post-emergence, 8.75 g/ha, read-out: % visual injury, Obs): 5%
% visual injury ([7]; Sulfosulfuron 140 g/ha): 45%
% visual injury, Obs ([8]; 8.75 g/ha): 40%
% visual injury ([8]; Sulfosulfuron 140 g/ha): 88%
% visual injury, Obs ([9]; 8.75 g/ha): 5%
% visual injury ([9]; Sulfosulfuron 140 g/ha): 83%
% visual injury, Obs ([10]; 8.75 g/ha): 53%
% visual injury, Obs ([11]; 8.75 g/ha): 55%
% visual injury [16]: 99%
% visual injury [17]: 98%
